Experimental data: patent US20100047233A1, “TREATMENT OF POST-MENOPAUSAL AND POST-HYSTERECTOMY MEDIATED COGNITIVE DISORDERS” (priority 2006, published 2010)
“Also recorded” adds a separate entry of the source. Non-standard residues stand in square brackets, D forms with d. Residues, ends and D or L forms follow the SMILES beside them. dPhe(4-Cl) = N[C@H](Cc1ccc(Cl)cc1)C(=O)O; d2Nal = N[C@H](Cc1ccc2ccccc2c1)C(=O)O; dCit = NC(=O)NCCC[C@@H](N)C(=O)O; d3Pal = N[C@H](Cc1cccnc1)C(=O)O

Legend:
[1] = tested on: C57/B6 female mice; assay: Morris Water Maze in ovariectomized mice (cetrorelix); assay type: in vivo
Description: FIG. 13 are graphs illustrating Latency to enter NE quadrant and % Time spent in NE quadrant during the probe trial for animals treated with cetrorelix or saline and sham operated animals (SHAM).
FIG. 14 are plots illustrating the distance swam in NE quadrant during the trial for animals treated with cetrorelix or saline and sham operated animals.
We present preliminary data gathered from a pilot study and that focuses on the effects of cetrorelix on cognition in ovariectomized animals with or without estrogen replacement immediately after surgery. For this pilot 2 month old C57/B6 female mice were ovariectomized, as described above, and then treated with either 0.9% saline and the other half with cetrorelix. In addition we added a SHAM ovariectomized group that received saline and a placebo pallet (n=10). During the last two weeks of the study all animals have been tested for Morris Water Maze performance.
(§1) Additionally, to further determine the memory function and training success in the animals we measured the capacity of the animals to retain the information learned using a probe trial. In this regard, at the end of the last day of training we removed the platform and let the animals swim for 1 minute.

[2] = tested on: C57/B6 female mice; assay: Y-maze performance in ovariectomized mice; assay type: in vivo; settings: OVX mice; for Y-maze performance: leuprolide acetate 7.5 mg/kg for 3 months vs saline, improvement specific to placebo replaced group
Description: To measure spontaneous alternation behavior and exploratory activity, a hippocampal-associated task, we used a Y-maze [32 cm (long)×10 cm (wide) with 26-cm walls]. Tg-LHβ and LHRKO animals were tested as previously described (Joseph et al., 2003). Briefly, each animal (randomized and investigator-blinded) was placed in one of three arms of the Y-maze (alternating arms across animals in each group) and each arm entry was recorded for duration of 5 minutes. An alternation was defined as 3 entries in 3 different arms (i.e., 1, 2, 3 or 2, 3, 1 etc). % number of alternations was calculated as (total alternations/total number of entries−2)×100. The maze was cleaned with ethanol between each animal to minimize odor cues. […] In addition we added a SHAM ovariectomized group that received saline and a placebo pallet (n=10). During the last two weeks of the study all animals have been tested for Y-maze and Morris Water Maze performance.

[3] = tested on: Tg2576 mice; assay: Y-maze performance in aged Tg2576 mice; assay type: in vivo; settings: aged (21 month old) Tg2576 female mice, 3 months, vs saline/placebo
Description: Figure illustrates the mean % alternations expressed as % change from baseline. To measure spontaneous alternation behavior and exploratory activity, a hippocampal-associated task, we used a Y-maze [32 cm (long)×10 cm (wide) with 26-cm walls]. Tg-LHβ and LHRKO animals were tested as previously described (Joseph et al., 2003). Briefly, each animal (randomized and investigator-blinded) was placed in one of three arms of the Y-maze (alternating arms across animals in each group) and each arm entry was recorded for duration of 5 minutes. An alternation was defined as 3 entries in 3 different arms (i.e., 1, 2, 3 or 2, 3, 1 etc). % number of alternations was calculated as (total alternations/total number of entries−2)×100. The maze was cleaned with ethanol between each animal to minimize odor cues. […] In this initial study we used aged animals to 1) circumvent the estrogen issue, since aged mice, like humans show estropause and 2) to examine the effects of LH ablation once the disease is well established.

[4] = tested on: serum LH; assay: Serum LH after leuprolide acetate treatment in mice; assay type: in vivo; settings: for serum LH: Tg2576 mice, vs saline
Description: (§2) Inset: LHβ mRNA expression in mouse pituitary gland.

[5] = tested on: AD patients; settings: high doses, phase II clinical trial; cited from earlier work
[6] = tested on: Tg2576 mice; settings: APP transgenic mice, earlier study; cited from earlier work
[7] = tested on: LHβ mRNA; assay: LHβ mRNA expression in mouse pituitary gland; assay type: in vivo; settings: saline versus 6 and 8 week leuprolide acetate treatment
Description: as §2

[8] = tested on: Aβ; settings: APP transgenic mice, earlier study; cited from earlier work
[9] = tested on: C57/B6 female mice; assay: Morris Water Maze in ovariectomized mice (leuprolide acetate, estrogen); assay type: in vivo; settings: for OVX-associated cognitive decline, length of time taken to locate the invisible platform across days: OVX C57/B6 mice, Morris Water Maze, 3 months treatment
Description: (Significance indicated by: *P+S vs E+S; #=P+S vs P+L; $=P+S vs SHAM; %=P+S vs E+L; at p<0.05).
For this pilot 2 month old C57/B6 female mice from Jackson Labs, were ovariectomized (n=40) them and either replaced them with 90-day time-release estrogen (n=20) or placebo pellets (Innovative research of America, F1) (n=18). […] In addition we added a SHAM ovariectomized group that received saline and a placebo pallet (n=10). During the last two weeks of the study all animals have been tested for Y-maze and Morris Water Maze performance.
As mentioned before, all mice also underwent MWM testing, a measurement of hippocampal function based on the capacity of the animal to find a hidden platform under water by remembering and using spatial cues in the environment.
as §1

[10] = tested on: Aβ; assay: Aβ burden (% area stained) in hippocampus of Tg2576 mice; assay type: in vivo; settings: vs saline-treated animals
Description: Scale bar, 200 μm. […] In this initial study we used aged animals to 1) circumvent the estrogen issue, since aged mice, like humans show estropause and 2) to examine the effects of LH ablation once the disease is well established.

[11] = platform removed, 1 minute swim, regardless of replacement regiment

CC(=O)N[C@H](Cc1ccc2ccccc2c1)C(=O)N[C@H](Cc1ccc(Cl)cc1)C(=O)N[C@H](Cc1cccnc1)C(=O)N[C@@H](CO)C(=O)N[C@@H](Cc1ccc(O)cc1)C(=O)N[C@H](CCCNC(N)=O)C(=O)N[C@@H](CC(C)C)C(=O)N[C@@H](CCCNC(=N)N)C(=O)N1CCC[C@H]1C(=O)N[C@H](C)C(N)=O [cetrorelix] (Ac-[d2Nal][dPhe(4-Cl)][d3Pal]SY[dCit]LRP[dA]-NH2)
OVX-dependent cognitive declines, Morris Water Maze ([1]; OVX placebo-implanted mice, cetrorelix vs saline): effective at improving OVX-dependent cognitive declines
rate of learning in Morris Water Maze ([1]; independent of replacement regiment, cetrorelix vs saline): learned at a faster rate
distance swam in NE quadrant, probe trial ([1]; platform removed, 1 minute swim): swam longer distances

CCNC(=O)[C@@H]1CCCN1C(=O)[C@H](CCCNC(=N)N)NC(=O)[C@H](CC(C)C)NC(=O)[C@@H](CC(C)C)NC(=O)[C@H](Cc1ccc(O)cc1)NC(=O)[C@H](CO)NC(=O)[C@H](Cc1c[nH]c2ccccc12)NC(=O)[C@H](Cc1c[nH]cn1)NC(=O)[C@@H]1CCC(=O)N1 [leuprolide acetate]
Y-maze performance [2]: significantly improved Y-maze performance
Y-maze performance ([2]; listed as leuprolide): effective at improving OVX-dependent cognitive declines
Y-maze cognitive performance (% alternations, % change from baseline) [3]: significantly attenuates cognitive decline
serum LH [4]: significant decline in serum LH
serum LH ([4]; listed as Leuprolide acetate): significantly reduces serum LH
time course of serum LH ([4]; up to 8 weeks following treatment): classical LH modulation pattern by GnRH agonists
cognitive impairment and activities of daily living [5]: stabilization in cognitive impairment and activities of daily living
Y-maze performance [6]: improves Y-maze performance
LHβ mRNA expression in the pituitary [7]: clear decrease in the expression of LHβ mRNA
amyloid-β load in the hippocampus [8]: decreases amyloid-β load
OVX-associated cognitive decline, length of time taken to locate the invisible platform across days [9]: as effective as estrogen in rescuing OVX-associated cognition decline
rate of learning in Morris Water Maze ([9]; independent of replacement regiment, vs saline): learned at a faster rate
distance swam in NE quadrant, probe trial [9, 11]: swam longer distances
latency to enter NE quadrant, probe trial [9, 11]: entered that quadrant earlier
latency to enter platform location, probe trial [9, 11]: crossed the invisible platform region more earlier
number of platform crossings, probe trial [9, 11]: crossed it more times
Aβ burden / plaque load (% area stained in the entire hippocampus) [10]: significantly lower; also recorded: decreases Aβ plaque load

estrogen
Y-maze performance, estrogen-replaced vs placebo replaced ([2]; saline-treated, 90-day time-release estrogen vs placebo pellets, p=0.07): strong trend
OVX-associated cognitive decline, length of time taken to locate the invisible platform across days [9]: rescued
